The text below walks through data of publication PMC3711795 (Nature, 2012).

Test [1] concerns the target T1, HSC / FNT3 (hydrosulfide ion channel) (Clostridioides difficile, UniProt Q186B7).
T1 sequence (Q186B7 2-258): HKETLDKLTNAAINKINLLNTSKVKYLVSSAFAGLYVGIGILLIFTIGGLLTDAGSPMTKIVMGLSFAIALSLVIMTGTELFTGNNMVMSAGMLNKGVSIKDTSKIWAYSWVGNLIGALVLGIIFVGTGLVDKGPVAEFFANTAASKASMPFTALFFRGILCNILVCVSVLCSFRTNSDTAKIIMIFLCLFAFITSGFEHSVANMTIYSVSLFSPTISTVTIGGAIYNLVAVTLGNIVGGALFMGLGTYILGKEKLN
The following applies: 450 µM 14C-formate; pH 8.0; competing permeant anion, competitive.

In test [2] the target is hydrosulfide ion channel (HSC) from Clostridium difficile (Clostridium difficile strain 630). Nature of the test: crystal structure.

Take `S` [HS^−]: the “% inhibition at 15 mM” value in test [1] is 90%.

For `O=NO` [nitrite], the “% inhibition at 15 mM” value in test [1] was found to be 70%.

For “hydrosulfide ion channel (HSC) from Clostridium difficile (natural protein)”, the stoichiometry N in test [2] amounted to 5.
